Key:
Zymoseptoria tritici = assay: Leaf blotch of wheat (SEPTTR) disease control on wheat seedlings; format: in vivo; set-up: key to SEPTTR 1DP, HV activity at 100 ppm (% control rating) / SEPTTR 3DC, HV activity at 100 ppm (% control rating) / SEPTTR disease control, 1DP / SEPTTR disease control, 3DC / SEPTTR 1DP disease control rating, HV activity / SEPTTR 3DC disease control rating, HV activity / SEPTTR 3DC, LV activity at 125.1 g/H (% Control rating) / SEPTTR 1DP, LV activity at 125.1 g/H (% Control rating) / SEPTTR 1DP disease control rating, LV activity at 125.1 g/H / SEPTTR 3DC disease control rating, LV activity at 125.1 g/H / SEPTTR 3DC disease control rating, HV activity at 100 ppm / SEPTTR 1DP disease control rating, HV activity at 100 ppm / HV activity at 100 ppm SEPTTR 3DC (disease control rating) / HV activity at 100 ppm SEPTTR 1DP (disease control rating) / LV activity at 125.1 g/H SEPTTR 1DP (disease control rating) / LV activity at 125.1 g/H SEPTTR 3DC (disease control rating): A: > 80; B: ≤ 80; C: Not Tested; D: No Activity Observed in the Reported Assay; conditions: for SEPTTR 1DP disease control rating, HV activity at 100 ppm / SEPTTR 3DC disease control rating, HV activity at 100 ppm: high volume application; for SEPTTR 1DP disease control rating, HV activity at 100 ppm / SEPTTR 1DP disease control rating, LV activity at 125.1 g/H: 1 day protectant; for SEPTTR 3DC disease control rating, HV activity at 100 ppm / SEPTTR 3DC disease control rating, LV activity at 125.1 g/H: 3 day curative; for SEPTTR 1DP disease control rating, LV activity at 125.1 g/H / SEPTTR 3DC disease control rating, LV activity at 125.1 g/H: low volume application
Puccinia triticina = assay: Wheat brown rust (PUCCRT) disease control on wheat seedlings; format: in vivo; set-up: key to PUCCRT 3DC, HV activity at 100 ppm (% control rating) / PUCCRT disease control, 3DC / PUCCRT 1DP disease control rating, HV activity / PUCCRT 3DC disease control rating, HV activity / PUCCRT 3DC, LV activity at 125.1 g/H (% Control rating) / PUCCRT 1DP, LV activity at 125.1 g/H (% Control rating) / PUCCRT 3DC disease control rating, LV activity at 125.1 g/H / PUCCRT 1DP disease control rating, LV activity at 125.1 g/H / PUCCRT 3DC disease control rating, HV activity at 100 ppm / PUCCRT 1DP disease control rating, HV activity at 100 ppm / HV activity at 100 ppm PUCCRT 3DC (disease control rating) / LV activity at 125.1 g/H PUCCRT 1DP (disease control rating) / LV activity at 125.1 g/H PUCCRT 3DC (disease control rating): A: > 80; B: ≤ 80; C: Not Tested; D: No Activity Observed in the Reported Assay; conditions: for PUCCRT 1DP disease control rating, HV activity at 100 ppm / PUCCRT 3DC disease control rating, HV activity at 100 ppm: high volume application; for PUCCRT 1DP disease control rating, HV activity at 100 ppm / PUCCRT 1DP disease control rating, LV activity at 125.1 g/H: 1 day protectant; for PUCCRT 3DC disease control rating, HV activity at 100 ppm / PUCCRT 3DC disease control rating, LV activity at 125.1 g/H: 3 day curative; for PUCCRT 1DP disease control rating, LV activity at 125.1 g/H / PUCCRT 3DC disease control rating, LV activity at 125.1 g/H: low volume application

| Compound | SEPTTR 1DP disease control rating, HV activity at 100 ppm (Zymoseptoria tritici) | SEPTTR 3DC disease control rating, HV activity at 100 ppm (Zymoseptoria tritici) | PUCCRT 1DP disease control rating, HV activity at 100 ppm (Puccinia triticina) | PUCCRT 3DC disease control rating, HV activity at 100 ppm (Puccinia triticina) | SEPTTR 1DP disease control rating, LV activity at 125.1 g/H (Zymoseptoria tritici) | SEPTTR 3DC disease control rating, LV activity at 125.1 g/H (Zymoseptoria tritici) | PUCCRT 1DP disease control rating, LV activity at 125.1 g/H (Puccinia triticina) | PUCCRT 3DC disease control rating, LV activity at 125.1 g/H (Puccinia triticina) |
| --- | --- | --- | --- | --- | --- | --- | --- | --- |
| COc1ccnc(C(=O)N[C@@H](C)C(=O)O[C@@H](C)[C@H](OCC2CC2)C2CCCC2)c1O [Cmpd 845, (S)-(1R,2S)-1-cyclopentyl-1-(cyclopropyl-methoxy)propan-2-yl-2-(3-hydroxy-4-methoxypicolinamido)propanoate] | B (≤ 80) | B (≤ 80) | A (> 80) | A (> 80) |  |  |  |  |
| COc1ccnc(C(=O)N[C@@H](C)C(=O)O[C@@H](C)[C@H](Oc2ccc(C)cc2)C2CCCC2)c1O [Cmpd 846, (S)-(1R,2S)-1-cyclopentyl-1-(p-tolyloxy)propan-2-yl-2-(3-hydroxy-4-methoxypicolinamido)propanoate] | B (≤ 80) | B (≤ 80) | A (> 80) | A (> 80) |  |  |  |  |
| COc1cccc(O[C@H](C2CCCC2)[C@H](C)OC(=O)[C@H](C)NC(=O)c2nccc(OC)c2O)c1 [Cmpd 847] | B (≤ 80) | A (> 80) | A (> 80) | A (> 80) |  |  |  |  |
| COc1ccnc(C(=O)N[C@@H](C)C(=O)O[C@@H](C)[C@H](Oc2ccccc2)c2ccc(F)cc2)c1O [Cmpd 848] | B (≤ 80) | A (> 80) | A (> 80) | B (≤ 80) |  |  |  |  |
| COc1ccnc(C(=O)N[C@@H](C)C(=O)O[C@@H](C)[C@@H](Oc2ccccc2)c2cccnc2)c1OC(C)=O [Cmpd 849] |  |  |  |  | D | B (≤ 80) | D | B (≤ 80) |
| CCCO[C@@H](C(C)C)[C@H](C)OC(=O)[C@H](C)NC(=O)c1nccc(OC)c1OCOC(C)=O [Cmpd 850] |  |  |  |  | D | B (≤ 80) | B (≤ 80) | A (> 80) |
| COc1ccnc(C(=O)N[C@@H](C)C(=O)O[C@@H](C)[C@@H](OC(=O)c2ccccc2)C(C)C)c1OCOC(C)=O [Cmpd 851] |  |  |  |  | D | D | B (≤ 80) | B (≤ 80) |
| COc1ccnc(C(=O)N[C@@H](C)C(=O)O[C@@H](C)[C@@H](Oc2cccc(Cl)c2)C(C)C)c1OCOC(C)=O [Cmpd 852] |  |  |  |  | B (≤ 80) | A (> 80) | A (> 80) | A (> 80) |
| COc1ccnc(C(=O)N[C@@H](C)C(=O)O[C@@H](C)[C@@H](Oc2cccc(C(F)(F)F)c2)C(C)C)c1OCOC(C)=O [Cmpd 853] |  |  |  |  | B (≤ 80) | A (> 80) | A (> 80) | A (> 80) |
| COc1ccnc(C(=O)N[C@@H](C)C(=O)O[C@@H](C)[C@@H](Oc2cccc3ccccc23)C(C)C)c1OCOC(C)=O [Cmpd 854] |  |  |  |  | B (≤ 80) | A (> 80) | A (> 80) | B (≤ 80) |
| CCCO[C@@H](C(C)C)[C@H](C)OC(=O)[C@H](C)NC(=O)c1nccc(OC)c1OC(C)=O [Cmpd 855] |  |  |  |  | D | D | B (≤ 80) | B (≤ 80) |
| COc1ccnc(C(=O)N[C@@H](C)C(=O)O[C@@H](C)[C@@H](OC(=O)c2ccccc2)C(C)C)c1OC(C)=O [Cmpd 856] |  |  |  |  | D | D | B (≤ 80) | B (≤ 80) |
| COc1ccnc(C(=O)NC(C)C(=O)OC(C)C(Oc2cccc(Cl)c2)C(C)C)c1OC(C)=O (stereo not drawn) [Cmpd 857] |  |  |  |  | B (≤ 80) | B (≤ 80) | A (> 80) | A (> 80) |
| COc1ccnc(C(=O)NC(C)C(=O)OC(C)C(Oc2cccc(C(F)(F)F)c2)C(C)C)c1OC(C)=O (stereo not drawn) [Cmpd 858] |  |  |  |  | B (≤ 80) | A (> 80) | A (> 80) | A (> 80) |
| COc1ccnc(C(=O)NC(C)C(=O)OC(C)C(Oc2cccc3ccccc23)C(C)C)c1OC(C)=O (stereo not drawn) [Cmpd 859] |  |  |  |  | B (≤ 80) | D | A (> 80) | B (≤ 80) |
| COc1ccnc(C(=O)NCC(=O)OC(C)C(Oc2ccccc2)C(C)C)c1OCOC(C)=O (stereo not drawn) [Cmpd 862] |  |  |  |  | D | D | A (> 80) | A (> 80) |
| COc1ccnc(C(=O)NC(Cc2ccccc2)C(=O)OC(C)C(Oc2ccccc2)C(C)C)c1OCOC(C)=O (stereo not drawn) [Cmpd 865] |  |  |  |  | B (≤ 80) | B (≤ 80) | A (> 80) | A (> 80) |
| COc1ccnc(C(=O)NC(C)C(=O)OC(C)C(Oc2ccc(Cl)cc2Cl)c2ccccc2)c1OC(C)=O (stereo not drawn) [Cmpd 867] |  |  |  |  | A (> 80) | A (> 80) | A (> 80) | B (≤ 80) |
| COc1ccnc(C(=O)NC(C)C(=O)OC(C)C(Oc2ccc(Cl)cc2Cl)c2ccccc2)c1OC(=O)C(C)C (stereo not drawn) [Cmpd 868] |  |  |  |  | B (≤ 80) | B (≤ 80) | B (≤ 80) | B (≤ 80) |
| COc1ccnc(C(=O)NC(C)C(=O)OC(C)C(Oc2ccc(Cl)cc2Cl)c2ccccc2)c1OCOC(C)=O (stereo not drawn) [Cmpd 869] |  |  |  |  | A (> 80) | A (> 80) | A (> 80) | B (≤ 80) |
| COc1ccnc(C(=O)NC(C)C(=O)OC(C)C(Oc2ccccc2)c2ccccc2)c1OC(C)=O (stereo not drawn) [Cmpd 870] |  |  |  |  | A (> 80) | A (> 80) | A (> 80) | B (≤ 80) |
| COc1ccnc(C(=O)NC(C)C(=O)OC(C)C(Oc2ccccc2)c2ccccc2)c1OC(=O)C(C)C (stereo not drawn) [Cmpd 871] |  |  |  |  | A (> 80) | B (≤ 80) | D | D |
| COc1ccnc(C(=O)NC(C)C(=O)OC(C)C(Oc2ccccc2)c2ccccc2)c1OCOC(C)=O (stereo not drawn) [Cmpd 872] |  |  |  |  | A (> 80) | A (> 80) | A (> 80) | A (> 80) |
| COc1ccnc(C(=O)N[C@@H](C)C(=O)O[C@@H](C)[C@H](Oc2cccc(F)c2)c2cccc(-c3ccccc3)c2)c1OCOC(C)=O [Cmpd 874] |  |  |  |  | A (> 80) | B (≤ 80) | A (> 80) | B (≤ 80) |

— patent US20180000085A1, “USE OF PICOLINAMIDE COMPOUNDS WITH FUNGICIDAL ACTIVITY” (DOW AGROSCIENCES LLC, priority 2014, published 2018)
